Results taken from patent US20250109140A1, “5-[5-(PIPERIDIN-4-YL)THIENO[3,2-C]PYRAZOL-2-YL]INDAZOLE DERIVATIVES AND RELATED COMPOUNDS AS MODULATORS FOR SPLICING NUCLEIC ACIDS AND FOR THE TREATMENT OF PROLIFERATIVE DISEASES” (REMIX THERAPUTICS INC., priority 2022, published 2025).
Where two headings read alike, the source gives them in different places.

Experiments:
Target C mRNA = assay: Splicing RT-qPCR gene panel, Target C canonical junction (CJ) mRNA; assay type: cell-based; settings: Homo sapiens; Table 8; larger gene panel, decrease in CJ mRNA levels
In short: (§1)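 A673 or K562 cells were exposed for 24 h at 37 °C to an 11-point 3-fold dilution series (top 10 uM final, DMSO ≤0.25%). Lysates were analysed by one-step RT-qPCR for canonical (CJ) and alternative (AJ) junctions. Values were normalized to GAPDH, GUSB or PPIA and to DMSO (ΔΔCt), then converted to percentage response.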

HiBiT-tagged MYB protein = assay: HiBiT protein abundance assay, MYB (K562 HiBiT knock-in cells); assay type: cell-based, human; settings: 24 hours treatment
Description: (§2) Compounds described herein were used to screen for effects on quantitative protein abundance using a HiBit assay system (Promega). Quantitative protein abundance was determined by measuring the protein levels of HiBit-tagged protein targets expressed in cell culture via luminescence using the Nano-Glo HiBiT Lytic Detection System, which uses a split complementation assay format to reconstitute NanoBiT enzyme to generate a luminescent signal. A protein abundance assay was developed such that endogenous protein targets could be modified with the HiBiT peptide tag and their abundance could be assessed after compound treatment. Briefly, K562 cell lines containing a HiBiT-modification were treated with various compounds described herein (e.g., compounds of Formulas (I), or (II)). After treatment for 24 hours, the protein abundance of a specific target was determined by measuring luminescence.
(§3) Cells were maintained in IMDM with 10% FBS. Before the assay, cells were diluted with […] growth media (IMDM+[…] media) and were seeded in a 384-well plate at a density of 10000 cells/well (for each cell line listed in Table 6). Each compound was prepared as a 10-point 3-fold serial dilution in DMSO with the top dose at a final concentration of […] in the well. Unmodified K562 cells were added at the previously specified density with DMSO to serve as an assay baseline and positive control (PC) and DMSO only with the respective modified cell lines was added to the negative control (NC) columns. Final DMSO concentration was kept at or below 0.25%. Treated cell plates were placed in an incubator at 37° C. with […] for 24 hours. After 24 hours, 25 μL of Complete HiflitLytic reagent was added to each well at room temperature (e.g. one plate requiring 10 mL Lytic Buffer, 100 μL LgBiT Protein, 200 μL Lytic Substrate), shaken for 5 minutes at 600 RPM, then left to sit for 10 minutes for signal to stabilize before reading on a Spark Cyto plate reader (Tecan) with a 500 ms measurement time.
(§4) To determine compound effects on protein abundance of each target in Table 6, the percent response for each respective cell line was calculated at each compound concentration as follows:
(§5) For the normalized response at each concentration, a four-parameter logistical regression was fit to the data and the response was interpolated at the 50% value to determine a concentration for protein abundance at 50% (IC50) the untreated control.

[1] = system: K562 (human chronic myelogenous leukemia) cells; assay: Cell viability, Cell Titer Glo 2.0 assay, K562 cells; assay type: cell-based; settings: 72 hours
Description: Compounds described herein were screened for toxicity in K562 (human chronic myelogenous leukemia) and SH-SY5Y (human neuroblastoma) cells using a Cell Titer Glo 2.0 assay.
Cells were plated at 500 cells/well (K562 cells) in 45 μL of IMDM supplemented with 10% FBS in a 384-well opaque plate. Wells containing only medium were used as a blank control. Test compounds (e.g., compounds of Formula (I), (III), (IV), (V), or (VI)) were first serially diluted in DMSO then diluted 1:100 with IMDM+10% FBS. The final concentration of DMSO was 0.1% in each well. The cells were incubated for 72 hours at 37° C. and 5% CO2 before assaying with Cell Titer Glo 2.0 reagent.

MYB mRNA = assay: Splicing RT-qPCR assay, MYB canonical (CJ) and alternative (AJ) junction mRNA; assay type: cell-based; settings: Homo sapiens; for EC50: AC50 = 50% response in AJ mRNA increase
In short: as §1

SMN2 mRNA = assay: Splicing RT-qPCR gene panel, SMN2 canonical junction (CJ) mRNA; assay type: cell-based; settings: Homo sapiens; Table 8; larger gene panel, decrease in CJ mRNA levels
In short: as §1

HiBiT-tagged HTT protein = assay: HiBiT protein abundance assay, HTT (K562 HiBiT knock-in cells); assay type: cell-based, human; settings: 24 hours treatment
Description: as §2, §3, §4, §5

HTT mRNA = assay: Splicing RT-qPCR assay, HTT canonical (CJ) and alternative (AJ) junction mRNA; assay type: cell-based; settings: Homo sapiens; for EC50: AC50 = 50% response in AJ mRNA increase
In short: as §1

Target C = assay: HiBiT protein abundance assay, Target C (K562 HiBiT knock-in cells); assay type: cell-based, human; settings: 24 hours treatment
Description: • Promega Nano-Glo HiBiT Lytic Detection System (cat #N3030) • Corning 384-well TC-treated microplates (cat #3570) • Synthego Engineered Cells Knock-In Clones
as §3, §4, §5

[2] = Table 7, RT-qPCR, A673 or K562 cells, 24 hours treatment
[3] = Table 7, IC50 = 50% response in CJ mRNA decrease, RT-qPCR, A673 or K562 cells, 24 hours treatment, read-out: MYB CJ
[4] = Table 8, larger gene panel, decrease in CJ mRNA levels, read-out: MYB CJ IC50
[5] = Table 7, IC50 = 50% response in CJ mRNA decrease, RT-qPCR, A673 or K562 cells, 24 hours treatment, read-out: HTT CJ
[6] = Table 8, larger gene panel, decrease in CJ mRNA levels, read-out: HTT CJ IC50

Compound	IC50 (Target C mRNA)	IC50 (HiBiT-tagged MYB protein)	IC50 [1]	EC50 (MYB mRNA; [2])	IC50 (MYB mRNA; [3])	IC50 (MYB mRNA; [4])	IC50 (SMN2 mRNA)	IC50 (HiBiT-tagged HTT protein)	EC50 (HTT mRNA; [2])	IC50 (HTT mRNA; [5])	IC50 (HTT mRNA; [6])	IC50 (Target C)
c1n[nH]cc1-n1cc2sc(C3CCNCC3)cc2n1 [Compound 176]	> 10 µM	> 10 µM	> 10 µM	> 10 µM	> 10 µM	> 10 µM	> 10 µM	> 10 µM	> 10 µM	> 10 µM	> 10 µM	> 10 µM
Cc1cn2cc(-n3cc4sc(C5CCNCC5)cc4n3)cc(C)c2n1 [Compound 173]	> 10 µM		1 to 10 µM	> 10 µM	> 10 µM	> 10 µM	1 to 10 µM		1 to 10 µM	1 to 10 µM	1 to 10 µM	
Cn1cc2cc(-c3nc4sc(N5CCC56CCCNC6)cc4s3)cc(F)c2n1 (stereo not shown) [Compound 202, 1-[2-(7-fluoro-2-methylindazol-5-yl)thieno[2,3-d][1,3]thiazol-5-yl]-1,6-diazaspiro[3.5]nonane]	1 to 10 µM			> 10 µM	> 10 µM	> 10 µM	1 to 10 µM		> 10 µM	> 10 µM	> 10 µM	
Cn1cc2cc(-c3nc4sc(C5CCNCC5)cn4n3)cc(F)c2n1 [Compound 103, 7-fluoro-2-methyl-5-[5-(piperidin-4-yl)-[1,2,4]triazolo[3,2-b][1,3]thiazol-2-yl]indazole]	> 10 µM			> 10 µM	> 10 µM	> 10 µM	> 10 µM		> 10 µM	> 10 µM	> 10 µM	
Cc1cn2cc(-c3nc4sc(C5CCNCC5)cc4s3)nc2c(C)n1 [Compound 239, 4-(2-{6,8-dimethylimidazo[1,2-a]pyrazin-2-yl}thieno[2,3-d][1,3]thiazol-5-yl)piperidine]	1 to 10 µM			1 to 10 µM	1 to 10 µM	1 to 10 µM	0.1 to 1 µM		1 to 10 µM	0.1 to 1 µM	1 to 10 µM	
COc1c(-c2nc3sc(C4CCNCC4)cc3s2)cc(F)c2nn(C)cc12 [Compound 237, 7-fluoro-4-methoxy-2-methyl-5-[5-(piperidin-4-yl)thieno[2,3-d][1,3]thiazol-2-yl]indazole]	> 10 µM			> 10 µM	1 to 10 µM	> 10 µM	> 10 µM		> 10 µM	> 10 µM	> 10 µM	
CN1CCC(N(C)c2cc3sc(-c4cc(F)c5nn(C)cc5c4)nc3s2)CC1 [Compound 145, N-[2-(7-fluoro-2-methylindazol-5-yl)thieno[2,3-d][1,3]thiazol-5-yl]-N,1-dimethylpiperidin-4-amine]	> 10 µM			1 to 10 µM	1 to 10 µM	1 to 10 µM	0.1 to 1 µM		> 10 µM	> 10 µM	> 10 µM	
Cn1cc2cc(-c3nc4sc(N5CCC56CCNC6)cc4s3)cc(F)c2n1 (stereo not shown) [Compound 200, 5-(5-{1,6-diazaspiro[3.4]octan-1-yl}thieno[2,3-d][1,3]thiazol-2-yl)-7-fluoro-2-methy-lindazole]	> 10 µM			> 10 µM	> 10 µM	> 10 µM	1 to 10 µM		> 10 µM	> 10 µM	> 10 µM	

The remaining lines, values ahead:

IC50 (Target C mRNA)	IC50 (HiBiT-tagged MYB protein)	IC50 [1]	EC50 (MYB mRNA; [2])	IC50 (MYB mRNA; [3])	IC50 (MYB mRNA; [4])	IC50 (SMN2 mRNA)	IC50 (HiBiT-tagged HTT protein)	EC50 (HTT mRNA; [2])	IC50 (HTT mRNA; [5])	IC50 (HTT mRNA; [6])	IC50 (Target C)	Compound
< 0.1 µM	0.1 to 1 µM		0.1 to 1 µM	0.1 to 1 µM	0.1 to 1 µM	< 0.1 µM	< 0.1 µM	0.1 to 1 µM	< 0.1 µM	0.1 to 1 µM	< 0.1 µM	Cn1cc2cc(-c3cc4nn(C5CCNCC5)cc4s3)cc(F)c2n1 [Compound 121, 7-fluoro-2-methyl-5-[2-(piperidin-4-yl)thieno[3,2-c]pyrazol-5-yl]indazole]
1 to 10 µM			1 to 10 µM	1 to 10 µM	1 to 10 µM	1 to 10 µM		1 to 10 µM	1 to 10 µM	1 to 10 µM		Cn1cc2c(F)cc(-c3nc4sc(C5CCNCC5)cc4s3)cc2n1 [Compound 131, 4-fluoro-2-methyl-6-[5-(piperidin-4-yl)thieno[2,3-d][1,3]thiazol-2-yl]indazole]
< 0.1 µM			< 0.1 µM	< 0.1 µM	< 0.1 µM	< 0.1 µM		< 0.1 µM	< 0.1 µM	< 0.1 µM		Cc1cn2nc(-c3nc4sc(C5CCNCC5)cc4s3)cc(C)c2n1 [Compound 112, 4-(2-[2,8-dimethylimidazo[1,2-b]pyridazin-6-yl]thieno[2,3-d][1,3]thiazol-5-yl)piperidine]
	1 to 10 µM	1 to 10 µM	0.1 to 1 µM	1 to 10 µM	0.1 to 1 µM	< 0.1 µM	1 to 10 µM	0.1 to 1 µM	0.1 to 1 µM	0.1 to 1 µM	1 to 10 µM	Cc1cn2nc(-n3cc4cc(C5CCNCC5)sc4n3)cc(C)c2n1 [Compound 110, 4-(2-[2,8-dimethylimidazo[1,2-b]pyridazin-6-yl]thieno[2,3-c]pyrazol-5-yl) piperidine]
1 to 10 µM			1 to 10 µM	1 to 10 µM	1 to 10 µM	< 0.1 µM		0.1 to 1 µM	0.1 to 1 µM	0.1 to 1 µM		Cn1cc2cc(N3Cc4cc(C5CCNCC5)sc4C3=O)cc(F)c2n1 [Compound 1118, 5-(7-fluoro-2-methylindazol-5-yl)-2-(piperidin-4-yl)-4H-thieno[2,3-c]pyrrol-6-one]
1 to 10 µM			1 to 10 µM	1 to 10 µM	1 to 10 µM	0.1 to 1 µM		0.1 to 1 µM	0.1 to 1 µM	0.1 to 1 µM		Cc1nc2c(F)cc(-c3nc4sc(C5CCNCC5)cc4s3)cc2s1 [Compound 126]
0.1 to 1 µM			0.1 to 1 µM	0.1 to 1 µM	0.1 to 1 µM	0.1 to 1 µM		< 0.1 µM	0.1 to 1 µM	< 0.1 µM		Cc1nc2c(F)cc(-c3nc4sc(C5CCNCC5)cc4s3)cc2o1 [Compound 132, 4-fluoro-2-methyl-6-[5-(piperidin-4-yl)thieno[2,3-d][1,3]thiazol-2-yl]-1,3-benzoxazole]
0.1 to 1 µM			0.1 to 1 µM	0.1 to 1 µM	0.1 to 1 µM	< 0.1 µM		< 0.1 µM	< 0.1 µM	< 0.1 µM		C[C@@H]1C[C@@H](c2cc3sc(-c4cc(F)c5nn(C)cc5c4)nc3s2)CCN1 (stereo in doubt) [Compound 263, 7-fluoro-2-methyl-5-{5-[(2R,4S)-2-methylpiperidin-4-yl]thieno[2,3-d][1,3]thiazol-2-yl}indazole]
